# Reference: patent US20090012152A1, “Use of Tetramic Acid Derivatives for Controlling Insects from the Genus of the Plane Lice (Sternorrhyncha)” (Bayer CropScience Aktiengesellschaft, priority 2005, published 2009)
# Experiments:
# Assay type in all cases: in vivo
# Psylla piri [1] = assay: Example 6: pear trees treated against Psylla piri; settings: larvae on shoots, % a.i.: amitraz 0.05, I-9, I-2, I-1 0.096; for Kill (%) 3 d: 3 d after last of two treatments; for Kill (%) 10 d: 10 d after last of two treatments; for Kill (%) 20 d: 20 d after last of two treatments
# Method: In three replications, in each case 4 about 4-year-old pear trees of the cultivar “Williams Christ” are treated against Psylla piri. Two applications are carried out at an interval of 11 days using a motor-operated barrow-mounted sprayer. Here, the active compounds Example (I-9) (240 SC), Example (I-2) (240 SC) and Example (I-1) (240 SC) are tested against the commercial standard Amitraz (200 EC) at the stated amounts. The application rate is 2000 l of water/ha.
# Evaluation is carried out 3, 10 and 20 days after the last treatment by rating the kill of the larvae in percent on the shoots.
# Bemisia argentifolii [2] = assay: Example 36: aubergine plants (Ryoma) treated against Bemisia argentifolii; settings: nymphs on leaves, % a.i.: pymetrozine 0.0125, I-4 0.072, I-8 0.06; for Kill (%) 13 d: 13 d after treatment; for Kill (%) 20 d: 20 d after treatment; for Kill (%) 27 d: 27 d after treatment
# Method: In three replications, in each case four aubergine plants of the cultivar “Ryoma” are treated against Bemisia argentifolii. The application is carried out using a motor-operated knapsack sprayer. Here, the active compounds Example (I-4) and Example (I-8), in a tank mix with 0.2% a.i. of rapeseed oil methyl ester (500 EW), and the commercial standard pymetrozine (25 WP) are tested at the stated application rates. The application rate is 3200 l of water/ha.
# Evaluation is carried out 13, 20 and 27 days after the treatment by rating the kill of the nymphs on the leaves.
# Saissetia oleae = assay: Example 13: orange trees treated against Saissetia oleae; settings: nymphs on leaves, g a.i./ha/m crown height: buprofezin 500, I-4 72, I-8 30
# Method: In three replications, in each case two about 8-year-old orange trees are treated against Saissetia oleae. Here, the active compounds Example (I-4) (240 SC) and Example (I-8) (250 SC) in a tank mix with 0.2% a.i. of rapeseed oil methyl ester (500 EW) at the stated application rate are tested against the commercial standard buprofezin in a tank mix with 0.4% a.i. of Oliocin (800 EW) at the stated application rate. The application is carried out using a motor-operated knapsack sprayer. The application rate is 3000 l of water/ha. Two treatments are carried out, at an interval of 29 days.
# Evaluation is carried out 24 and 44 days after the last treatment by rating the kill of the nymphs on the leaves.
# Nasonovia ribisnigri = assay: Example 42: head lettuce treated against Nasonovia ribisnigri; settings: on plants, g a.i./ha: Pirimor 150, I-4 48, I-8 42
# Method: In four replications, plots of a size of 5 m^2 with head lettuce are, two weeks after transplantation, treated against Nasonovia ribisnigri. The application is carried out using a knapsack sprayer operated with pressurized air. Here, the active compounds Example (I-4) (240 SC) and Example (I-8) (240 SC) are, in a tank mix with 0.2% a.i. of rapeseed oil methyl ester (500 EW), tested against the commercial standard Pirimor, at the stated application rates. The application rate is 500 l of water/ha.
# Evaluation is carried out 7, 14 and 26 days after the treatment by rating the kill of the animals on the plants.
# Myzus persicae [3] = assay: Example 50: tomatoes treated against Myzus persicae; settings: nymphs on leaves, g a.i./ha: acetamiprid 50, I-9 36, I-4 48
# Method: In two replications, plots of a size of about 43 m^2 with tomatoes of the cultivar “Yaqui” are treated against Myzus persicae. The application is carried out using a motor-operated knapsack sprayer. Here, the active compounds Example (I-9) (240 SC) and Example (I-4) (240 SC), in a tank mix with 0.1% a.i. of rapeseed oil methyl ester (500 EW), and the standard acetamiprid (20 WP) are applied at the stated application rates. The application rate is 208 l of water/ha.
# Evaluation is carried out 3 and 10 days after the treatment by rating the kill of the nymphs on the leaves.
# Psylla piri [4] = assay: Example 5: pear trees treated against Psylla piri; settings: nymphs on shoots, g a.i./ha/m crown height: amitraz 266, I-4 72
# Method: In three replications, pear trees of the cultivar “Williams Christ” are treated against Psylla piri. Application is shortly before the eggs hatch. The application is carried out using a barrow-mounted sprayer operated with pressurized air. Here, the active compound Example (I-4) (240 SC) is tested in a tank mix with 0.1% a.i. rapeseed oil methyl ester (500 EW) at the stated amount against the standard amitraz (200 EC) at the stated amount. The application rate is 1000 l of water/ha.
# Evaluation is carried out 7, 14 and 21 days after the treatment by rating the kill of the nymphs on the shoots.
# Paratrioza cockerelli = assay: Example 7: bell peppers treated against Paratrioza cockerelli; settings: nymphs on leaves, g a.i./ha: imidacloprid 52.6, I-4 72, dimethoate 561
# Method: In four replications, plots of a size of about 7 m^2 with bell peppers of the cultivar “Jupiter” are treated against Paratrioza cockerelli. The application is carried out with a knapsack sprayer operated with pressurized air. Here, the active compound Example (I-4) (240 SC) is applied in a tank mix with 0.2% a.i. of rapeseed oil methyl ester (500 EW) and the commercial standards imidacloprid 192 SC and dimethoate (480 EC) are applied in a tank mix with 0.125% Induce at the stated application rates. The application is carried out with an application rate of 467 l of water/ha.
# Evaluation is carried out 7 and 15 days after the treatment by rating the kill of the animals (nymphs) on the leaves.
# Macrosiphum euphorbiae = assay: Example 46: head lettuce treated against Macrosiphum euphorbiae; settings: nymphs on plants, g a.i./ha: endosulfan 1120, I-4 48
# Method: (§1) In four replications, plots of a size of about 33 m^2 with head lettuce of the cultivar “PIC 714” are treated against Aulacorthum solani, Macrosiphum euphorbiae and Myzus persicae. The application is carried out using a tractor sprayer. Here, the active compound Example (I-4) (240 SC), in a tank mix with 0.2% a.i. of rapeseed oil methyl ester (500 EW), is tested against the commercial standard endosulfan (360 EC), at the stated application rates. The application rate is 187 l of water/ha. Two treatments are carried out, at an interval of 22 days.
# (§2) Evaluation is carried out 8, 22, 30 and 40 days after the first treatment by rating the kill of the nymphs on the plants.
# Bemisia argentifolii [5] = assay: Example 37: cantaloupe melons treated against Bemisia argentifolii; settings: nymphs on leaves, g a.i./ha: endosulfan 1120, I-4 48
# Method: In four replications, plots of a size of about 39 m^2 with cantaloupe melons of the cultivar “Western Shipper” are treated against Bemisia argentifolii. The application is carried out using a knapsack sprayer operated with pressurized air. Here, the active compound Example (I-4) (240 SC), in a tank mix with 0.2 a.i. of rapeseed oil methyl ester (500 EW), and the commercial standard endosulfan (360 EC) are tested at the stated application rates. Two applications are carried out at an interval of 16 days. The application rate is 187 l of water/ha.
# Evaluation is carried out 5, 13, 21 and 29 days after the first treatment by rating the kill of the animals (nymphs) on the leaves.
# Aulacorthum solani = assay: Example 46: head lettuce treated against Aulacorthum solani; settings: nymphs on plants, g a.i./ha: endosulfan 1120, I-4 48
# Method: as §1, §2
# Myzus persicae [6] = assay: Example 46: head lettuce treated against Myzus persicae; settings: nymphs on plants, g a.i./ha: endosulfan 1120, I-4 48
# Method: as §1, §2
# Pemphigus bursarius = assay: Example 3: chrysanthemums, lettuce root aphid; settings: on roots, drip irrigation 0.1%
# Method: In three replications, in each case 10 about 5-month-old chrysanthemums (Camilla) in 2 l-vessels are treated against the lettuce root aphid Pemphigus bursarius. Here, the active compound Example (I-4) (240 SC) is applied with a knapsack sprayer operated by pressurized air at the beginning of the infestation at the stated application rates to the above-ground parts of the plants. The soil is covered with a film. The application rate is 600 l of water/ha. 0.1% a.i. of rapeseed oil methyl ester (500 EW) is added to the spray liquor. Omethoate as drip irrigation in a concentration of 0.1% is used for comparison. The application is carried out two days later.
# The kill in percent is determined on the roots. […]
# Myzus persicae [7] = assay: Example 48: aubergine plants treated against Myzus persicae; settings: on leaves, rate (g of a.i./ha): pymethrozine 0.0125, I-4 0.024
# Method: In three replications, four aubergine plants (age about 7 months) of the cultivar “Hayabusa” are treated against Myzus persicae. The application is carried out using a motor-operated knapsack sprayer. Here, the active compound Example (I-4) (240 SC), in a tank mix with 0.1% a.i. of rapeseed oil methyl ester (500 EW), and the commercial standard pymethrozine (25 WP) are tested at the stated application rates. The application rate is 3000 l of water/ha.
# Evaluation is carried out 7, 14, 21 and 29 days after the treatment by rating the kill of the animals on the leaves.
# [8] = 8 d after first of two treatments
# [9] = 22 d after first of two treatments
# [10] = 30 d after first of two treatments
# [11] = 40 d after first of two treatments
structure (smiles),measurement,setting,value
COC1CCC2(CC1)NC(=O)C(c1cc(C)ccc1Br)=C2OC(=O)C(C)C (stereo not drawn) [Example (I-1)],Kill (%) 3 d,Psylla piri [1],90.0%
same,Kill (%) 10 d,Psylla piri [1],96.6%
same,Kill (%) 20 d,Psylla piri [1],95.0%
CCOC(=O)OC1=C(c2cc(C)c(Cl)cc2C)C(=O)NC12CCC(OC)CC2 (stereo not drawn) [Example (I-8)],Kill (%) 13 d,Bemisia argentifolii [2],99.5%
same,Kill (%) 20 d,Bemisia argentifolii [2],99.9%
same,Kill (%) 27 d,Bemisia argentifolii [2],97%
same,Kill (%) 24 d,Saissetia oleae; 24 d after last of two treatments,66.5%
same,Kill (%) 44 d,Saissetia oleae; 44 d after last of two treatments,56.1%
same,Kill (%) 7 d,Nasonovia ribisnigri; 7 d after treatment,80.8%
same,Kill (%) 14 d,Nasonovia ribisnigri; 14 d after treatment,93.6%
same,Kill (%) 26 d,Nasonovia ribisnigri; 26 d after treatment,92.7%
"C/C(=N\C#N)N(C)Cc1ccc(Cl)nc1 [acetamiprid, reference compound]",Kill (%) 3 d,Myzus persicae [3]; 3 d after treatment,78.7%
same,Kill (%) 10 d,Myzus persicae [3]; 10 d after treatment,73.5%
"Cc1ccc(/N=C/N(C)/C=N/c2ccc(C)cc2C)c(C)c1 [amitraz, reference compound]",Kill (%) 3 d,Psylla piri [1],54.3%
same,Kill (%) 10 d,Psylla piri [1],56.7%
same,Kill (%) 20 d,Psylla piri [1],21.4%
same,Kill (%) 7 d,Psylla piri [4]; 7 d after treatment,100%
same,Kill (%) 14 d,Psylla piri [4]; 14 d after treatment,95.2%
same,Kill (%) 21 d,Psylla piri [4]; 21 d after treatment,75%
CNC(=O)CSP(=S)(OC)OC [dimethoate],Kill (%) 7 d,Paratrioza cockerelli; 7 d after treatment,63%
same,Kill (%) 15 d,Paratrioza cockerelli; 15 d after treatment,0%
"O=S1OCC2C(CO1)C1(Cl)C(Cl)=C(Cl)C2(Cl)C1(Cl)Cl (stereo not drawn) [endosulfan, reference compound]",Kill (%) 8 d,Macrosiphum euphorbiae; [8],100%
same,Kill (%) 22 d,Macrosiphum euphorbiae; [9],100%
same,Kill (%) 30 d,Macrosiphum euphorbiae; [10],99%
same,Kill (%) 40 d,Macrosiphum euphorbiae; [11],96%
same,Kill (%) 5 d,Bemisia argentifolii [5]; 5 d after first of two treatments,0%
same,Kill (%) 13 d,Bemisia argentifolii [5]; 13 d after first of two treatments,100%
same,Kill (%) 21 d,Bemisia argentifolii [5]; 21 d after first of two treatments,80.8%
same,Kill (%) 29 d,Bemisia argentifolii [5]; 29 d after first of two treatments,66.7%
same,Kill (%) 8 d,Aulacorthum solani; [8],96%
same,Kill (%) 22 d,Aulacorthum solani; [9],88%
same,Kill (%) 30 d,Aulacorthum solani; [10],98%
same,Kill (%) 40 d,Aulacorthum solani; [11],53%
same,Kill (%) 8 d,Myzus persicae [6]; [8],95%
same,Kill (%) 22 d,Myzus persicae [6]; [9],61%
same,Kill (%) 30 d,Myzus persicae [6]; [10],100%
"CNC(=O)CSP(=O)(OC)OC [omethoate, reference compound]",Kill (%) 7 d,Pemphigus bursarius; 7 d,20 (7 d) %
same,Kill (%) 15 d,Pemphigus bursarius; 15 d,70.6 (15 d) %
"CC1=NNC(=O)N(/N=C/c2cccnc2)C1 [pymetrozine, reference compound]",Kill (%) 13 d,Bemisia argentifolii [2],79%
same,Kill (%) 20 d,Bemisia argentifolii [2],74%
same,Kill (%) 27 d,Bemisia argentifolii [2],75%
same,Kill (%) 7 d,Myzus persicae [7]; 7 d after treatment,99.9%
same,Kill (%) 14 d,Myzus persicae [7]; 14 d after treatment,99%
same,Kill (%) 21 d,Myzus persicae [7]; 21 d after treatment,95%
same,Kill (%) 29 d,Myzus persicae [7]; 29 d after treatment,73%
